Where two headings read alike, the source gives them in different places.

For experiment [1], the system named is human lung cancer cell line A549. Briefly: Cancer cell proliferation inhibitory activity evaluation 2 (CCK-8), A549. The class given is cell-based. The method, then: (§1) In order to identify whether the compounds have anticancer activity, the acute myeloid leukemia cell line U937, the acute lymphoblastic leukemia cell line Jurkat, the gastric cancer cell lines AGS, […], and the human lung cancer cell line A549 were used. The cell line was cultured using RPMI-1640 medium (U937, Jurkat, AGS, A549) or DMEM (Hs746T) medium containing 10% fetal bovine serum. Welgene products were used as the medium, and hyclone products were used for fetal bovine serum, and 1% of antibiotics for cell culture from Gibco were used as the culture medium.

The subject of experiment [2] is acute lymphoblastic leukemia cell line Jurkat. Briefly: Cancer cell proliferation inhibitory activity evaluation 2 (CCK-8), Jurkat. Particulars: Homo sapiens. Type of experiment: cell-based. On the procedure: as §1
Experiment [3] has as its system gastric cancer cell line Hs746T. Briefly: Cancer cell proliferation inhibitory activity evaluation 2 (CCK-8), Hs746T. The class given is cell-based. To be noted: Homo sapiens. The method, then: as §1
The target in experiment [4] is MLK3 (Homo sapiens (Human), UniProt Q16584). Briefly: Evaluation of inhibitory activity of enzyme units, MLK3 ([γ-33P]-ATP filter assay). To be noted: read-out: IC50(nM) MLK3.
MLK3, sequence (Q16584 whole entry, looked up): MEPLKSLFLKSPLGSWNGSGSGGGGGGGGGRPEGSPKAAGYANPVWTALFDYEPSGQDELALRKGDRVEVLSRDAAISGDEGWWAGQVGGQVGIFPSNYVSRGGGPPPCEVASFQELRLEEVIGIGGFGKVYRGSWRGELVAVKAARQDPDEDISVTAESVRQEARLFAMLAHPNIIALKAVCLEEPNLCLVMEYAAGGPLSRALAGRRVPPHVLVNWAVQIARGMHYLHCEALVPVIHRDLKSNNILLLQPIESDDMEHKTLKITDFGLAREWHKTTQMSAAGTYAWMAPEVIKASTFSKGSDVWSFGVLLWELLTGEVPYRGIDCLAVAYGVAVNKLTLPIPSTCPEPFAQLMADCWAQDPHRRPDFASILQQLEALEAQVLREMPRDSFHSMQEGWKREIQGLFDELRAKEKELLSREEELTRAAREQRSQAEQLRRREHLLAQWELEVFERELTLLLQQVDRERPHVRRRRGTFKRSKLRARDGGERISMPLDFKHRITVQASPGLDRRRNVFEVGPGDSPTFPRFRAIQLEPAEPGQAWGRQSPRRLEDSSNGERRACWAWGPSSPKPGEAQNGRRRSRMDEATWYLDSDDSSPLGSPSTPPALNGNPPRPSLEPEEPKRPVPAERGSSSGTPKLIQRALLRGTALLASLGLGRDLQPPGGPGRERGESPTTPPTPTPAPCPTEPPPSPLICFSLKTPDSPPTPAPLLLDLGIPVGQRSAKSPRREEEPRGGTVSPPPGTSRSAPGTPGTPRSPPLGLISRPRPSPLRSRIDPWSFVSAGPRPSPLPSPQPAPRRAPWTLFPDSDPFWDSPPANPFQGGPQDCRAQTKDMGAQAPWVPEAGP
Experiment [5] addresses MLK1 (Homo sapiens (Human), UniProt P80192). Briefly: Evaluation of inhibitory activity of enzyme units, MLK1 ([γ-33P]-ATP filter assay). The class given is biochemical.
Experiment [6] has as its system gastric cancer cell line AGS. Briefly: Cancer cell proliferation inhibitory activity evaluation 2 (CCK-8), AGS. The class given is cell-based. To be noted: Homo sapiens, read-out: Cancer cell proliferation inhibitory activity AGS. The method, then: as §1
The subject of experiment [7] is acute myeloid leukemia cell line U937. Briefly: Cancer cell proliferation inhibitory activity evaluation 2 (CCK-8), U937. Particulars: Homo sapiens, read-out: Cancer cell proliferation inhibitory activity U937. The class given is cell-based. On the procedure:
as §1

Setting [8] is: A549, 72 h, read-out: Cancer cell proliferation inhibitory activity A549.
[9] abbreviates: 72 h, read-out: Cancer cell proliferation inhibitory activity Jurkat.
[10] abbreviates: 72 h, read-out: Cancer cell proliferation inhibitory activity Hs746T.
The mark [11] stands for this setting: A549, 10 μM, 72 hours, CCK-8, read-out: Cancer cell proliferation inhibitory activity A549.
Where [12] appears, read: 10 μM, 72 hours, CCK-8, read-out: Cancer cell proliferation inhibitory activity Jurkat.
[13] abbreviates: 10 μM, 72 hours, CCK-8, read-out: Cancer cell proliferation inhibitory activity Hs746T.
The mark [14] stands for this setting: U-937, 10 μM, 72 hours, CCK-8 (Table 3).

MLK1, sequence (P80192 whole entry, looked up): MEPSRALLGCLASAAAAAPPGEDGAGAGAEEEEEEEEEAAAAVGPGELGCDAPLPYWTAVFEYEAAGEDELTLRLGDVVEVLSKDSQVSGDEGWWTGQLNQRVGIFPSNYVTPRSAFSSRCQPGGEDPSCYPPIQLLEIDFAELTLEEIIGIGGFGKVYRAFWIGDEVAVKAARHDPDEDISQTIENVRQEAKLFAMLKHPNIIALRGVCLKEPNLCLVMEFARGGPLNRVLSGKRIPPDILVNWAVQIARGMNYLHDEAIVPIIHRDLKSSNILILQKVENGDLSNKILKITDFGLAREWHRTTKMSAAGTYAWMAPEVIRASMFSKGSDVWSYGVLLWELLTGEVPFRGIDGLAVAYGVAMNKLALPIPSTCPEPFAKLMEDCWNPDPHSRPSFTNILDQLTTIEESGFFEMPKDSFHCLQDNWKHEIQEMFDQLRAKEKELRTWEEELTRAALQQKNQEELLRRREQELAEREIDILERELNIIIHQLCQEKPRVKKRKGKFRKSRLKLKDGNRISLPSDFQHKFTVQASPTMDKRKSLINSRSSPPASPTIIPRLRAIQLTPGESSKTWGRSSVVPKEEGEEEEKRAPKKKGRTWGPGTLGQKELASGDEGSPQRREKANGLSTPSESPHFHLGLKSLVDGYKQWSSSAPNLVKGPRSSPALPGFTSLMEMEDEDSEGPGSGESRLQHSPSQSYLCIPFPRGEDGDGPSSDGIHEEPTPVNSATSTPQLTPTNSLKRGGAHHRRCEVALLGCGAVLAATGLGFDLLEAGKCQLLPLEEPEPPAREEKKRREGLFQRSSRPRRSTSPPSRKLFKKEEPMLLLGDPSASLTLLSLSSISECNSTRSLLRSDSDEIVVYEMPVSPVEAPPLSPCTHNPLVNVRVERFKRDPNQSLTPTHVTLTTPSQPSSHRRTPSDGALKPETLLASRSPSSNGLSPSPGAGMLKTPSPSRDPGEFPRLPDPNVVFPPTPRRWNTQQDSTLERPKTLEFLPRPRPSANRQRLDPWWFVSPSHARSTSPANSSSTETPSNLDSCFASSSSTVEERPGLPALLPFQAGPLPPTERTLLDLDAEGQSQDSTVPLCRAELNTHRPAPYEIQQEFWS

On to `CCS(=O)(=O)N1CC[C@H](Nc2c(Br)cnc3[nH]c(-c4cc(C)n(-c5cccc(C(=O)N(C)CCN(C)C)c5)c4C)nc23)C1` [Example 61, (S)-3-(3-(6-bromo-7-((1-(ethylsulfonyl)pyrrolidine-3-yl)amino)-3H-imidazo[4,5-b]pyridine-2-yl)-2,5-dimethyl-1H-pyrrol-1-yl)-N-(2-(dimethylamino)ethyl)-N-methylbenzamide], for which the inhibition at 10 µM in experiment [1] (setting [8]) is over 50%; in experiment [2] (setting [9]), over 50%; in experiment [3] (setting [10]) it was over 50%; in experiment [6] (72 h), over 50%; in experiment [7] (U-937, 72 h), over 50%. Further, the IC50 (commonly the point on the concentration scale where inhibition reaches its midpoint) in experiment [4] was 30 nM; in experiment [5], 19 nM.

With `CCS(=O)(=O)N1CC[C@H](Nc2c(Br)cnc3[nH]c(-c4cc(C)n(-c5ccc(C(=O)NCCN6CCN(C)CC6)cc5)c4C)nc23)C1` [Example 72, (S)-4-(3-(6-bromo-7-((1-(ethylsulfonyl)pyrrolidine-3-yl)amino)-3H-imidazo[4,5-b]pyridine-2-yl)-2,5-dimethyl-1H-pyrrol-1-yl)-N-(2-(4-methylpiperazine-1-yl)ethyl)benzamide], the inhibition at 10 µM in experiment [1] (setting [8]) was 10 to 50%; in experiment [2] (setting [9]), over 50%; in experiment [3] (setting [10]), over 50%; in experiment [6] (72 h), over 50%; in experiment [7] (U-937, 72 h) it was over 50%. Moreover, the IC50 in experiment [4] is 15 nM; in experiment [5] it was 25 nM.

Consider `CCS(=O)(=O)N1CC[C@H](Nc2c(Br)cnc3nc(-c4cc(C)n(-c5cccc(C(=O)N6CCOCC6)c5C)c4C)[nH]c23)C1` [Example 83, (3-(3-(6-bromo-7-(((S)-1-(ethylsulfonyl)pyrrolidine-3-yl)amino)-1H-imidazo[4,5-b]pyridine-2-yl)-2,5-dimethyl-1H-pyrrol-1-yl)-2-methylphenyl) (morpholino) methanone], for which the inhibition at 10 µM in experiment [1] (setting [8]) is 10 to 50%; in experiment [2] (setting [9]), over 50%; in experiment [3] (setting [10]), over 50%; in experiment [6] (72 h) it was over 50%; in experiment [7] (U-937, 72 h) it was over 50%. Also, the IC50 stood at 12 nM in experiment [4] and 22 nM in experiment [5].

On to `CCS(=O)(=O)N1CC[C@H](Nc2c(Cl)cnc3[nH]c(-c4cc(C)n(-c5cc(NS(C)(=O)=O)ccc5C)c4C)nc23)C1` [Example 51, N-(3-(3-(6-chloro-7-(((S)-1-(ethylsulfonyl)pyrrolidine-3-yl)amino)-3H-imidazo[4,5-b]pyridine-2-yl)-2,5-dimethyl-1H-pyrrol-1-yl)-4-methylphenyl) methanesulfonamide], for which the inhibition at 10 µM in experiment [1] (setting [11]) is 10 to 50%; in experiment [2] (setting [12]) it was over 50%; in experiment [3] (setting [13]), over 50%; in experiment [7] (setting [14]), over 50%. Moreover, the IC50 in experiment [4] was determined as 330 nM; in experiment [5], 53 nM.

With `Cc1ccc(NC(=O)CN2CCN(C)CC2)cc1-n1c(C)cc(-c2nc3ncc(Br)c(Nc4cccc(S(N)(=O)=O)c4)c3[nH]2)c1C` [Example 89, N-(3-(3-(6-bromo-7-((3-sulfamoylphenyl)amino)-1H-imidazo[4,5-b]pyridine-2-yl)-2,5-dimethyl-1H-pyrrol-1-yl)-4-methylphenyl)-2-(4-methylpiperazine-1-yl) acetamide], the inhibition at 10 µM in experiment [1] (setting [11]) was under 10%; in experiment [2] (setting [12]) it was 10 to 50%; in experiment [3] (setting [13]), 10 to 50%; in experiment [6] (10 μM, 72 hours, CCK-8) it was 10 to 50%; in experiment [7] (setting [14]), under 10%. Also, the IC50 stood at 81 nM in experiment [4] and 169 nM in experiment [5].

With `CCS(=O)(=O)N1CC[C@H](Nc2c(Cl)cnc3nc(-c4cc(C)n(-c5ccc(OCCN6CCOCC6)cc5)c4C)[nH]c23)C1` [Example 52, (S)-6-chloro-2-(2,5-dimethyl-1-(4-(2-morpholinoethoxy)phenyl)-1H-pyrrol-3-yl)-N-(1-(ethylsulfonyl)pyrrolidine-3-yl)-1H-imidazo[4,5-b]pyridine-7-amine], the inhibition at 10 µM in experiment [1] (setting [11]) is 10 to 50%; in experiment [2] (setting [12]), over 50%; in experiment [3] (setting [13]), over 50%; in experiment [7] (setting [14]) it was over 50%. The IC50 came to 324 nM in experiment [4] and 87 nM in experiment [5].

Consider `CCS(=O)(=O)N1CC[C@H](Nc2c(Br)cnc3nc(-c4cc(C)n(-c5cc(NC(=O)CCN(C)C)ccc5C)c4C)[nH]c23)C1` [Example 80], for which the inhibition at 10 µM in experiment [1] (setting [11]) is over 50%; in experiment [2] (setting [12]) it was over 50%; in experiment [3] (setting [13]), over 50%; in experiment [6] (10 μM, 72 hours, CCK-8), over 50%; in experiment [7] (setting [14]), over 50%.

With `CCN(CC)CCNC(=O)c1cccc(-n2c(C)cc(-c3nc4ncc(Br)c(N[C@H]5CCN(S(=O)(=O)CC)C5)c4[nH]3)c2C)c1` [Example 56, (S)-3-(3-(6-bromo-7-((1-(ethylsulfonyl)pyrrolidine-3-yl)amino)-1H-imidazo[4,5-b]pyridine-2-yl)-2,5-dimethyl-1H-pyrrol-1-yl)-N-(2-(diethylamino)ethyl)benzamide], the inhibition at 10 µM in experiment [1] (setting [11]) is over 50%; in experiment [2] (setting [12]), over 50%; in experiment [3] (setting [13]) it was over 50%; in experiment [6] (10 μM, 72 hours, CCK-8) it was over 50%; in experiment [7] (setting [14]) it was over 50%. For the same molecule, the IC50 in experiment [4] worked out at 122 nM.

As to `CCS(=O)(=O)N1CC[C@H](Nc2c(Br)cnc3[nH]c(-c4cc(C)n(-c5cccc(NS(C)(=O)=O)c5C)c4C)nc23)C1` [Example 9, N-(3-(3-(6-bromo-7-(((S)-1-(ethylsulfonyl)pyrrolidine-3-yl)amino)-3H-imidazo[4,5-b]pyridine-2-yl)-2,5-dimethyl-1H-pyrrol-1-yl)-2-methylphenyl) methanesulfonamide], the inhibition at 10 µM in experiment [1] (setting [8]) was over 50%; in experiment [2] (setting [9]), over 50%; in experiment [3] (setting [10]) it was over 50%; in experiment [6] (72 h), over 50%; in experiment [7] (U-937, 72 h), over 50%. Further, the IC50 in experiment [4] stood at 10 nM.

Turning to `CCS(=O)(=O)N1CC[C@H](Nc2c(Br)cnc3[nH]c(-c4cc(C)n(-c5ccc(C(=O)O)cc5)c4C)nc23)C1` [Example 59, (S)-4-(3-(6-bromo-7-((1-(ethylsulfonyl)pyrrolidine-3-yl)amino)-3H-imidazo[4,5-b]pyridine-2-yl)-2,5-dimethyl-1H-pyrrol-1-yl)benzoic acid], the inhibition at 10 µM in experiment [1] (setting [8]) is under 10%; in experiment [2] (setting [9]), 10 to 50%; in experiment [3] (setting [10]), 10 to 50%; in experiment [6] (72 h), under 10%; in experiment [7] (U-937, 72 h), 10 to 50%. Moreover, the IC50 in experiment [4] is 19 nM.

Turning to `CCS(=O)(=O)N1CC[C@H](Nc2c(Br)cnc3[nH]c(-c4cc(C)n(-c5ccc(NS(C)(=O)=O)cc5C)c4C)nc23)C1` [Example 8, N-(4-(3-(6-bromo-7-(((S)-1-(ethylsulfonyl)pyrrolidine-3-yl)amino)-3H-imidazo[4,5-b]pyridine-2-yl)-2,5-dimethyl-1H-pyrrol-1-yl)-3-methylphenyl) methanesulfonamide], the inhibition at 10 µM was over 50% in experiment [1] (setting [8]); over 50% in experiment [2] (setting [9]); over 50% in experiment [3] (setting [10]); over 50% in experiment [6] (72 h); over 50% in experiment [7] (U-937, 72 h). In addition, in experiment [4], the IC50 was 7 nM.

As to `CCS(=O)(=O)N1CC[C@H](Nc2ccnc3[nH]c(-c4cc(C)n(-c5cc(NS(C)(=O)=O)ccc5C)c4C)nc23)C1` [Example 50, N-(3-(3-(7-(((S)-1-(ethylsulfonyl)pyrrolidine-3-yl)amino)-3H-imidazo[4,5-b]pyridine-2-yl)-2,5-dimethyl-1H-pyrrol-1-yl)-4-methylphenyl) methanesulfonamide], the IC50 in experiment [4] and in experiment [5] was over 30000 nM each time.

Turning to `CCS(=O)(=O)N1CC[C@H](Nc2c(Br)cnc3[nH]c(-c4cc(C)n(-c5cccc(C(=O)NCN(C)C)c5)c4C)nc23)C1` [Example 60, (S)-3-(3-(6-bromo-7-((1-(ethylsulfonyl)pyrrolidine-3-yl)amino)-3H-imidazo[4,5-b]pyridine-2-yl)-2,5-dimethyl-1H-pyrrol-1-yl)-N-((dimethylamino)methyl)benzamide], the inhibition at 10 µM in experiment [1] (setting [8]) is over 50%; in experiment [2] (setting [9]), over 50%; in experiment [3] (setting [10]) it was over 50%; in experiment [6] (72 h), over 50%; in experiment [7] (U-937, 72 h) it was over 50%. In addition, the IC50 in experiment [4] worked out at 27 nM.

Consider `CCN(CC)CCNC(=O)c1ccc(-n2c(C)cc(-c3nc4ncc(Br)c(N[C@H]5CCN(S(=O)(=O)CC)C5)c4[nH]3)c2C)cc1` [Example 57, (S)-4-(3-(6-bromo-7-((1-(ethylsulfonyl)pyrrolidine-3-yl)amino)-1H-imidazo[4,5-b]pyridine-2-yl)-2,5-dimethyl-1H-pyrrol-1-yl)-N-(2-(diethylamino)ethyl)benzamide], for which the inhibition at 10 µM was over 50% in experiment [1] (setting [8]); over 50% in experiment [2] (setting [9]); over 50% in experiment [3] (setting [10]); over 50% in experiment [6] (72 h); over 50% in experiment [7] (U-937, 72 h). Moreover, in experiment [4], the IC50 is 97 nM.

The values are drawn from patent publication US12545673B2, “Imidazopyridine derivative and pharmaceutical composition comprising same as active ingredient” (TSD LIFE SCIENCES CO., LTD., priority 2019, dated 2026).
